These results are taken from ChEMBL document CHEMBL1138927, “Neurotrophic peptide aldehydes: solid phase synthesis of fellutamide B and a simplified analog” (Bioorg Med Chem Lett, 2006).

What all share (format): functional, cell-based
One assay relates to KB. As to the kind of experiment: Cytotoxicity against human KB cell line by [3H] thymidine incorporation assay. On the technique in general: Dividing cells build labelled thymidine or BrdU into new DNA.
Assay [1] has as its system LM. As to the kind of experiment: Cytotoxicity against mouse LM cell line by [3H] thymidine incorporation assay.
Another assay has as its system PC-12. As to the kind of experiment: Cytotoxicity against rat PC12 cell line by [3H] thymidine incorporation assay. Particulars: PC-12, 24 h.
Assay [2] relates to LM. In words: Induction of NGF secretion in LM cells at 50 uM after 24 hrs. Particulars: Mus musculus.

Active and inactive are the calls of the source. The calls are words filed in the database; no cut-off is given here. Residues, ends and D or L forms follow the SMILES beside them. *: point of attachment. Octanoyl = CCCCCCCC(=O)*

Turning to `CCCCCCCC(=O)N[C@@H](CC(N)=O)C(=O)N[C@@H](CCC(N)=O)C(=O)N[C@H](C=O)CC(C)C` (Octanoyl-Asn-Gln-Leu-aldehyde), the IC50 (commonly the concentration at which inhibition is half-maximal) was determined as 4830 nM in the assay on KB, 3330 nM in the assay on LM [1] and 1670 nM in the assay on PC-12. In the assay on LM [2], the result was Active.

Regarding `CCCCCCCCC[C@@H](O)CC(=O)N[C@@H](CC(N)=O)C(=O)N[C@@H](CCC(N)=O)C(=O)N[C@H](C=O)CC(C)C` [FELLUTAMIDE B], the half-maximal inhibitory concentration (IC50) worked out at 349 nM in the assay with KB, 482 nM with LM [1] and 437 nM in the assay with PC-12. Moreover, in the assay with LM [2], the result was Active.
